Test results from the NIST ThermoML archive (doi:10.1021/je0505164).
± gives the expanded uncertainty stated by the source.

Conditions: Liquid; for mass density: 298.15 K, 101.33 kPa; for Normal boiling temperature: Ebulliometric method (Recirculating still)

| mass density [kg/m3] | Normal boiling temperature [°C] | SMILES |
| --- | --- | --- |
| 785.1 ± 0.3 | 78.31 ± 0.2 | CCO [ethanol] |
| 799.6 ± 0.3 | 97.06 ± 0.2 | CCCO [propan-1-ol] |
| 780.8 ± 0.3 | 82.24 ± 0.2 | CC(C)O [propan-2-ol] |
